According to patent US9181199B2, “Uracil derivatives and use thereof” (RESprotect GmbH, priority 2008, dated 2015):

| melting point [°C] | Compound |
| --- | --- |
| 213 to 215 | C[Si](C)(C)C#Cc1cn(Cc2ccccc2)c(=O)[nH]c1=O |
| 131 | O=c1c(C=CBr)cn(C(c2ccccc2)c2ccccc2)c(=O)n1Cc1ccccc1 [compound A, 1-Benzhydryl-3-benzyl-5-(2-bromovinyl)uracil] |
| 183 | O=c1[nH]c(=O)n(Cc2ccccc2)cc1C=CBr [compound B, 1-Benzyl-5-(2-bromovinyl)uracil] |
| 137 | C=CCn1cc(C=CBr)c(=O)[nH]c1=O [compound C, 1-Allyl-5-(2-bromovinyl)uracil] |
| 162 to 165 | O=c1[nH]c(=O)n(Cc2ccccc2)cc1C#CBr [compound D, 1-Benzyl-5-bromoethynyluracil] |
| 165 | O=c1[nH]c(=O)n(C(c2ccccc2)c2ccccc2)cc1-c1c[nH]nn1 [compound F, 1-Benzhydryl-5-(1H-1,2,3-triazol-4-yl)uracil] |
| 261 | N#CC=Cc1cn(C(c2ccccc2)c2ccccc2)c(=O)[nH]c1=O [compound G, 1-Benzhydryl-5-(2-cyanovinyl)uracil] |
| 154 to 156 | C=CCn1cc(C=C(Br)Br)c(=O)[nH]c1=O [compound H, 1-Allyl-5-(2,2-dibromovinyl)uracil] |
| 164 to 168 | C=CCn1cc(C#CBr)c(=O)[nH]c1=O [compound I, 1-Allyl-5-bromoethynyluracil] |
| 205 to 206 | O=c1[nH]c(=O)n(Cc2ccccc2)cc1C=C(Br)Br [compound L, 1-Benzyl-5-(2,2-dibromovinyl)uracil] |
| 179 to 183 | CC(c1ccccc1)n1cc(C=C(Br)Br)c(=O)[nH]c1=O (stereo not shown) [compound M, 1-(1-Phenylethyl)-5-(2,2-dibromovinyl)uracil] |
| 163 to 167 | CC(c1ccccc1)n1cc(C#CBr)c(=O)[nH]c1=O (stereo not shown) [compound N, 1-(1-Phenylethyl)-5-bromoethynyluracil] |
| 190 to 193 | C#Cc1cn(Cc2ccccc2)c(=O)[nH]c1=O [compound R, 1-Benzyl-5-ethynyluracil] |
